The test addresses T1, BTK (Homo sapiens, UniProt Q06187).
T1 construct: endogenous in cells; host or cells: Ramos cells
In words: BTK cell degradation in Ramos cells (total BTK ELISA). The test is classed as cell-based. The conditions noted are these: 16 h incubation, FastScan total BTK ELISA. The essentials: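 Ramos cells were treated for 16 h with compounds (7 doses, 5-fold dilution series, 0.1% DMSO). Total BTK in cell lysates was quantified by sandwich ELISA with TMB read-out at 450 nm.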
A general note: An ELISA detects its analyte on a solid surface through an enzyme-linked reagent.
T1 sequence (Q06187 whole entry): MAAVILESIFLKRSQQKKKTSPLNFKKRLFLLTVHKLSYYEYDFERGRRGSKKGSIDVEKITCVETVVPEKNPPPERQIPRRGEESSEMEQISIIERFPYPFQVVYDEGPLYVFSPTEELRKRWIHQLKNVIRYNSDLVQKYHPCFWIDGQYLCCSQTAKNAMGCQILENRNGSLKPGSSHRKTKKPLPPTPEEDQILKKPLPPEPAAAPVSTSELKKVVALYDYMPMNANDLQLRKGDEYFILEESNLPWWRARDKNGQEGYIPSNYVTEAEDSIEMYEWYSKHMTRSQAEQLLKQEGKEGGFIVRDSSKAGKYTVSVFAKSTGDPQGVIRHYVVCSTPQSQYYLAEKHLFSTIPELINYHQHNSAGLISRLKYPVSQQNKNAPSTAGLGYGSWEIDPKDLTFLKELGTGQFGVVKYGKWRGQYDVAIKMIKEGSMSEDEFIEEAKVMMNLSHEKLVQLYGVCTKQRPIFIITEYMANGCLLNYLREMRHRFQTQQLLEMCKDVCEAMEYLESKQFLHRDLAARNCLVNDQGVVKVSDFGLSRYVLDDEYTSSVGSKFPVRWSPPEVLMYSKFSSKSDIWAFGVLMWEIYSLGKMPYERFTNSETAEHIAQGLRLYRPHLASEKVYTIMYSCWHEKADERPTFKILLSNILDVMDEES
A word on the DC50: it is the concentration at which degradation of the target reaches its halfway point. `NC(=O)c1c(-c2ccc(Oc3ccccc3)cc2)nn2c1NCC[C@H]2C1CCN(C(=O)CCCN2CCN(C(=O)CNc3ccc4c(c3)C(=O)N(C3CCC(=O)NC3=O)C4=O)CC2)CC1` (stereo partly drawn) [Example 152, (7S)-7-(1-(4-(4-((2-(2,6-dioxopiperidin-3-yl)-1,3-dioxoisoindolin-5-yl)glycyl)piperazin-1-yl)butanoyl)piperidin-4-yl)-2-(4-phenoxyphenyl)-4,5,6,7-tetrahydropyrazolo[1,5-a]pyrimidine-3-carboxamide]: it took 35 nM to reach half-maximal degradation (DC50). In the case of `NC(=O)c1c(-c2ccc(Oc3ccccc3)cc2)nn2c1NCC[C@H]2C1CCN(C(=O)COCCOCCNC(=O)CCCN2CCN(c3ccc4c(c3)C(=O)N(C3CCC(=O)NC3=O)C4=O)CC2)CC1` (stereo partly drawn) [Example 42, (7S)-7-(1-(2-(2-(2-(4-(4-(2-(2,6-dioxopiperidin-3-yl)-1,3-dioxoisoindolin-5-yl)piperazin-1-yl)butanamido)ethoxy)ethoxy)acetyl)piperidin-4-yl)-2-(4-phenoxyphenyl)-4,5,6,7-tetrahydropyrazolo[1,5-a]pyrimidine-3-carboxamide] it was 624 nM. Next, `CN(C/C=C/C(=O)N1CCC([C@@H]2CCNc3c(C(N)=O)c(-c4ccc(Oc5ccccc5)cc4)nn32)CC1)CCCN1C(=O)CCC(N2Cc3c(N)cccc3C2=O)C1=O` (stereo partly drawn) [Example 54, (7S)-7-(1-((E)-4-((3-(3-(4-amino-1-oxoisoindolin-2-yl)-2,6-dioxopiperidin-1-yl)propyl)(methyl)amino)but-2-enoyl)piperidin-4-yl)-2-(4-phenoxyphenyl)-4,5,6,7-tetrahydropyrazolo[1,5-a]pyrimidine-3-carboxamide]: 428 nM; `NC(=O)c1c(-c2ccc(Oc3ccccc3)cc2)nn2c1NCC[C@H]2C1CCN(C(=O)CCCCNc2cccc3c2C(=O)N(C2CCC(=O)NC2=O)C3=O)CC1` (stereo partly drawn) [Example 31, (7S)-7-(1-(5-((2-(2,6-dioxopiperidin-3-yl)-1,3-dioxoisoindolin-4-yl)amino)pentanoyl)piperidin-4-yl)-2-(4-phenoxyphenyl)-4,5,6,7-tetrahydropyrazolo[1,5-a]pyrimidine-3-carboxamide]: above 10000 nM; `NC(=O)c1c(-c2ccc(Oc3ccccc3)cc2)nn2c1NCC[C@H]2C1CCN(C(=O)c2cn(CCOCCOCCNc3cccc4c3C(=O)N(C3CCC(=O)NC3=O)C4=O)nn2)CC1` (stereo partly drawn) [Example 3, (7S)-7-(1-(1-(2-(2-(2-((2-(2,6-dioxopiperidin-3-yl)-1,3-dioxoisoindolin-4-yl)amino)ethoxy)ethoxy)ethyl)-1H-1,2,3-triazole-4-carbonyl)piperidin-4-yl)-2-(4-phenoxyphenyl)-4,5,6,7-tetrahydropyrazolo[1,5-a]pyrimidine-3-carboxamide]: above 10000 nM. Next, `NC(=O)c1c(-c2ccc(Oc3ccccc3)cc2)nn2c1NCC[C@H]2C1CCN(C(=O)CCCc2ccc(NC(=O)CNc3ccc4c(c3)C(=O)N(C3CCC(=O)NC3=O)C4=O)cc2)CC1` (stereo partly drawn) [Example 58, (7S)-7-(1-(4-(4-(2-((2-(2,6-dioxopiperidin-3-yl)-1,3-dioxoisoindolin-5-yl)amino)acetamido)phenyl)butanoyl)piperidin-4-yl)-2-(4-phenoxyphenyl)-4,5,6,7-tetrahydropyrazolo[1,5-a] pyrimidine-3-carboxamide]: 28 nM; `NC(=O)c1c(-c2ccc(Oc3ccccc3)cc2)nn2c1NCC[C@H]2C1CCN(C2CCN(Cc3ccc(C(=O)NCCNc4cccc5c4C(=O)N(C4CCC(=O)NC4=O)C5=O)cc3)CC2)CC1` (stereo partly drawn) [Example 43, (7S)-7-(1′-(4-((2-((2-(2,6-dioxopiperidin-3-yl)-1,3-dioxoisoindolin-4-yl)amino)ethyl)carbamoyl)benzyl)-[1, 4′-bipiperidin]-4-yl)-2-(4-phenoxyphenyl)-4,5,6,7-tetrahydropyrazolo[1,5-a]pyrimidine-3-carboxamide]: above 10000 nM. In turn, `NC(=O)c1c(-c2ccc(Oc3ccccc3)cc2)nn2c1NCC[C@H]2C1CCN(C(=O)CCC2CCC(N3CCN(c4ccc5c(c4)C(=O)N(C4CCC(=O)NC4=O)C5=O)CC3)CC2)CC1` (stereo partly drawn) [Example 151, (7S)-7-(1-(3-(4-(4-(2-(2,6-dioxopiperidin-3-yl)-1,3-dioxoisoindolin-5-yl)piperazin-1-yl)cyclohexyl)propanoyl)piperidin-4-yl)-2-(4-phenoxyphenyl)-4,5,6,7-tetrahydropyrazolo[1,5-a] pyrimidine-3-carboxamide] showed a DC50 of 17 nM.
